Test results reported in PubChem BioAssay AID2060498 (Molecular Pharmacology Branch, DTP, NCI, 2025).

System: 171881-019-R-J1-PDC tumor spheroids, viability
Assay: Anticancer human tumor 171881-019-R-J1-PDC patient-derived invasive breast carcinoma cell line growth inhibition [GQUAD]
Conditions: spheroids with HUVEC and MSC; for IC50: curve of first compound; for viability, T/C: stronger effect = lower value
Summary of the method: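 Tumor cells were grown as complex spheroids with HUVEC endothelial cells and mesenchymal stem cells as stroma. G-quadruplex stabilizers were combined with targeted agents over half-log dilutions from near the clinical Cmax, or from 10 microM.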

[1] = second compound 0.0316 µM, first compound 0.0316 µM
[2] = second compound 0.0316 µM, first compound 0.1 µM
[3] = second compound 0.0316 µM, first compound 0.316 µM
[4] = second compound 0.0316 µM, first compound 1 µM
[5] = second compound 0.0316 µM, first compound 3.16 µM
[6] = second compound 0.0316 µM, first compound 10 µM
[7] = second compound 0.1 µM, first compound 0.0316 µM
[8] = second compound 0.1 µM, first compound 0.1 µM
[9] = second compound 0.1 µM, first compound 0.316 µM
[10] = second compound 0.1 µM, first compound 1 µM
[11] = second compound 0.1 µM, first compound 3.16 µM
[12] = second compound 0.1 µM, first compound 10 µM
[13] = second compound 0.316 µM, first compound 0.0316 µM
[14] = second compound 0.316 µM, first compound 0.1 µM
[15] = second compound 0.316 µM, first compound 0.316 µM
[16] = second compound 0.316 µM, first compound 1 µM
[17] = second compound 0.316 µM, first compound 3.16 µM
[18] = second compound 0.316 µM, first compound 10 µM
[19] = second compound 1 µM, first compound 0.0316 µM
[20] = second compound 1 µM, first compound 0.1 µM
[21] = second compound 1 µM, first compound 0.316 µM
[22] = second compound 1 µM, first compound 1 µM
[23] = second compound 1 µM, first compound 3.16 µM
[24] = second compound 1 µM, first compound 10 µM
[25] = second compound 3.16 µM, first compound 0.0316 µM
[26] = second compound 3.16 µM, first compound 0.1 µM
[27] = second compound 3.16 µM, first compound 0.316 µM
[28] = second compound 3.16 µM, first compound 1 µM
[29] = second compound 3.16 µM, first compound 3.16 µM
[30] = second compound 3.16 µM, first compound 10 µM
[31] = second compound 10 µM, first compound 0.0316 µM
[32] = second compound 10 µM, first compound 0.1 µM
[33] = second compound 10 µM, first compound 0.316 µM
[34] = second compound 10 µM, first compound 1 µM
[35] = second compound 10 µM, first compound 3.16 µM
[36] = second compound 10 µM, first compound 10 µM
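Note: spheroids exposed to compounds for 7 days.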
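Throughout, for viability, T/C: 100% = DMSO vehicle control viability.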

Compound: COc1cc(C2c3cc4c(cc3C(OC3OC5COC(C)OC5C(O)C3O)C3COC(=O)C23)OCO4)cc(OC)c1O (stereo not drawn) + Cc1cnc(CNC(=O)c2c(=O)c3ccc(N4CCCN(C)CC4)nc3n3c2sc2ccccc23)cn1
- IC50 (second compound 0.0316 µM): 706 nM
- IC50 (second compound 0.1 µM): 907 nM
- IC50 (second compound 0.316 µM): 1060 nM
- IC50 (second compound 1 µM): 1270 nM
- IC50 (second compound 3.16 µM): 1360 nM
- IC50 (second compound 10 µM): 1400 nM
- viability, T/C [1]: 94.5%
- viability, T/C [2]: 79.3%
- viability, T/C [3]: 63.4%
- viability, T/C [4]: 42.5%
- viability, T/C [5]: 31.4%
- viability, T/C [6]: 17.4%
- viability, T/C [7]: 83.7%
- viability, T/C [8]: 75.2%
- viability, T/C [9]: 60.5%
- viability, T/C [10]: 52.3%
- viability, T/C [11]: 30.6%
- viability, T/C [12]: 16.7%
- viability, T/C [13]: 69.9%
- viability, T/C [14]: 74.2%
- viability, T/C [15]: 59.9%
- viability, T/C [16]: 49.5%
- viability, T/C [17]: 36.7%
- viability, T/C [18]: 18.1%
- viability, T/C [19]: 65.4%
- viability, T/C [20]: 61%
- viability, T/C [21]: 59.1%
- viability, T/C [22]: 53.3%
- viability, T/C [23]: 39.9%
- viability, T/C [24]: 19.3%
- viability, T/C [25]: 60.3%
- viability, T/C [26]: 60.2%
- viability, T/C [27]: 60%
- viability, T/C [28]: 53.3%
- viability, T/C [29]: 39.7%
- viability, T/C [30]: 20.9%
- viability, T/C [31]: 58%
- viability, T/C [32]: 57.7%
- viability, T/C [33]: 52.9%
- viability, T/C [34]: 55%
- viability, T/C [35]: 39%
- viability, T/C [36]: 21.1%

Compound: COc1cccc2c1C(=O)c1c(O)c3c(c(O)c1C2=O)CC(O)(C(=O)CO)CC3OC1CC(N)C(O)C(C)O1 (stereo not drawn) + Cc1cnc(CNC(=O)c2c(=O)c3ccc(N4CCCN(C)CC4)nc3n3c2sc2ccccc23)cn1
- IC50 (second compound 0.0316 µM): 153 nM
- IC50 (second compound 0.1 µM): 159 nM
- IC50 (second compound 0.316 µM): 169 nM
- IC50 (second compound 1 µM): 155 nM
- IC50 (second compound 3.16 µM): 139 nM
- IC50 (second compound 10 µM): 138 nM
- viability, T/C [1]: 70.5%
- viability, T/C [2]: 54.8%
- viability, T/C [3]: 39%
- viability, T/C [4]: 13.5%
- viability, T/C [5]: 0.14%
- viability, T/C [6]: 0.9%
- viability, T/C [7]: 70.2%
- viability, T/C [8]: 57.4%
- viability, T/C [9]: 37.8%
- viability, T/C [10]: 13.7%
- viability, T/C [11]: 0.14%
- viability, T/C [12]: 0.43%
- viability, T/C [13]: 62.9%
- viability, T/C [14]: 59.9%
- viability, T/C [15]: 38.7%
- viability, T/C [16]: 11.7%
- viability, T/C [17]: 0.32%
- viability, T/C [18]: 0.4%
- viability, T/C [19]: 61.8%
- viability, T/C [20]: 53.2%
- viability, T/C [21]: 41.2%
- viability, T/C [22]: 11.4%
- viability, T/C [23]: 0.12%
- viability, T/C [24]: 0.16%
- viability, T/C [25]: 59.1%
- viability, T/C [26]: 52.5%
- viability, T/C [27]: 39.3%
- viability, T/C [28]: 10.6%
- viability, T/C [29]: 0.2%
- viability, T/C [30]: 0.14%
- viability, T/C [31]: 59.9%
- viability, T/C [32]: 55.9%
- viability, T/C [33]: 35.3%
- viability, T/C [34]: 9.6%
- viability, T/C [35]: 0.2%
- viability, T/C [36]: 0.69%

Compound: Nc1ccn(C2OC(CO)C(O)C2(F)F)c(=O)n1 (stereo not drawn) + Cc1cnc(CNC(=O)c2c(=O)c3ccc(N4CCCN(C)CC4)nc3n3c2sc2ccccc23)cn1
- IC50 (second compound 0.0316 µM): < 31.6 nM
- IC50 (second compound 0.1 µM): < 31.6 nM
- IC50 (second compound 0.316 µM): < 31.6 nM
- IC50 (second compound 1 µM): < 31.6 nM
- IC50 (second compound 3.16 µM): < 31.6 nM
- IC50 (second compound 10 µM): < 31.6 nM
- viability, T/C [1]: 27.8%
- viability, T/C [2]: 29.9%
- viability, T/C [3]: 39.4%
- viability, T/C [4]: 38%
- viability, T/C [5]: 33.7%
- viability, T/C [6]: 31.2%
- viability, T/C [7]: 29.8%
- viability, T/C [8]: 31.9%
- viability, T/C [9]: 37.1%
- viability, T/C [10]: 41.4%
- viability, T/C [11]: 37%
- viability, T/C [12]: 33.8%
- viability, T/C [13]: 31.5%
- viability, T/C [14]: 36.2%
- viability, T/C [15]: 44%
- viability, T/C [16]: 37.9%
- viability, T/C [17]: 39.1%
- viability, T/C [18]: 34.7%
- viability, T/C [19]: 35%
- viability, T/C [20]: 35.6%
- viability, T/C [21]: 42.7%
- viability, T/C [22]: 41.2%
- viability, T/C [23]: 44.2%
- viability, T/C [24]: 37.3%
- viability, T/C [25]: 36.2%
- viability, T/C [26]: 38.6%
- viability, T/C [27]: 43.8%
- viability, T/C [28]: 43.3%
- viability, T/C [29]: 44.9%
- viability, T/C [30]: 40%
- viability, T/C [31]: 33.2%
- viability, T/C [32]: 37.3%
- viability, T/C [33]: 39.1%
- viability, T/C [34]: 45.6%
- viability, T/C [35]: 46%
- viability, T/C [36]: 40.8%

Compound: O=c1[nH]cc(F)c(=O)[nH]1 + Cc1cnc(CNC(=O)c2c(=O)c3ccc(N4CCCN(C)CC4)nc3n3c2sc2ccccc23)cn1
- IC50 (second compound 0.0316 µM): > 10000 nM
- IC50 (second compound 0.1 µM): > 10000 nM
- IC50 (second compound 0.316 µM): > 10000 nM
- IC50 (second compound 1 µM): > 10000 nM
- IC50 (second compound 3.16 µM): > 10000 nM
- IC50 (second compound 10 µM): > 10000 nM
- viability, T/C [1]: 80.2%
- viability, T/C [2]: 69.5%
- viability, T/C [3]: 57.5%
- viability, T/C [4]: 57.4%
- viability, T/C [5]: 54.5%
- viability, T/C [6]: 57%
- viability, T/C [7]: 77.7%
- viability, T/C [8]: 67.7%
- viability, T/C [9]: 62.2%
- viability, T/C [10]: 58.3%
- viability, T/C [11]: 59.4%
- viability, T/C [12]: 60.4%
- viability, T/C [13]: 68.9%
- viability, T/C [14]: 71.2%
- viability, T/C [15]: 65.6%
- viability, T/C [16]: 58.7%
- viability, T/C [17]: 65.2%
- viability, T/C [18]: 59.4%
- viability, T/C [19]: 67.7%
- viability, T/C [20]: 60.6%
- viability, T/C [21]: 65.5%
- viability, T/C [22]: 60.2%
- viability, T/C [23]: 66.2%
- viability, T/C [24]: 63.1%
- viability, T/C [25]: 65%
- viability, T/C [26]: 59.6%
- viability, T/C [27]: 58.9%
- viability, T/C [28]: 55.5%
- viability, T/C [29]: 65%
- viability, T/C [30]: 62.3%
- viability, T/C [31]: 59.1%
- viability, T/C [32]: 59.6%
- viability, T/C [33]: 55.1%
- viability, T/C [34]: 57.7%
- viability, T/C [35]: 61.5%
- viability, T/C [36]: 54%
